Key:
Assay in all cases: Test D controlled growth environment herbicide test, pre- and postemergence
Assay type in all cases: in vivo
[1] = system: barley, spring (spring barley, Hordeum vulgare)
Method in brief: (§1)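 Pre-emergence: seeds sown in silt loam soil were sprayed with compound in a non-phytotoxic solvent mix containing surfactant. Post-emergence: plants at 2 to 18 cm (1- to 4-leaf stage) in peat moss/vermiculite medium got the same formulation. Visual 0–100 rating versus controls after 14 to 21 d.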

[2] = system: barley, winter (winter barley, Hordeum vulgare)
Method in brief: as §1

[3] = system: bluegrass (annual bluegrass, Poa annua)
Method in brief: as §1

[4] = system: buckwheat, wild (wild buckwheat, Polygonum convolvulus)
Method in brief: as §1

[5] = system: chamomile (scentless chamomile, Matricaria inodora)
Method in brief: as §1

[6] = system: field poppy (Papaver rhoeas)
Method in brief: as §1

[7] = system: galium (catchweed bedstraw, Galium aparine)
Method in brief: as §1

[8] = system: mustard, wild (wild mustard, Sinapis arvensis)
Method in brief: as §1

[9] = system: oat, wild (wild oat, Avena fatua)
Method in brief: as §1

[10] = system: oilseed rape (Brassica napus)
Method in brief: as §1

[11] = system: pigweed (Amaranthus retroflexus)
Method in brief: as §1

[12] = system: radish, wild (wild radish, Raphanus raphanistrum)
Method in brief: as §1

[13] = system: speedwell (bird's-eye speedwell, Veronica persica)
Method in brief: as §1

[14] = Postemergence, 31 g ai/ha, scale 0 to 100 (0 no effect, 100 complete control)
[15] = Postemergence, 125 g ai/ha, visual rating on scale 0 (no effect) to 100 (complete control), 14 to 21 d
[16] = Postemergence, 250 g ai/ha, scale 0 to 100 (0 no effect, 100 complete control)
[17] = Preemergence, 62 g ai/ha, scale 0 to 100 (0 no effect, 100 complete control)
[18] = Preemergence, 125 g ai/ha, scale 0 to 100 (0 no effect, 100 complete control)
[19] = Preemergence, 250 g ai/ha, scale 0 to 100 (0 no effect, 100 complete control)
[20] = postemergence, 62 g ai/ha, scale 0 to 100, 0 no effect, 100 complete control

Structure (SMILES): Cc1cc(C)c2sc(C)c(-c3c(OC(=O)OC(C)C)c(C)nn(C)c3=O)c2c1 [Compound 67]
- Barley, Spring plant response rating [1, 14]: 0
- Plant response rating, Barley, Spring [1, 15]: 10
- Plant response rating, Barley, Spring [1, 16]: 20
- Plant response rating (scale of 0 to 100), Barley, Spring ([1]; Preemergence, 31 g ai/ha): 0
- Plant response rating, Barley, Spring [1, 17]: 0
- Plant response rating, Barley, Spring [1, 18]: 0
- Plant response rating, Barley, Spring [1, 19]: 0
- Plant response rating, Barley, Spring [1, 20]: 5
- Barley, Winter plant response rating [2, 14]: 0
- Plant response rating, Barley, Winter [2, 15]: 5
- Plant response rating, Barley, Winter [2, 16]: 10
- Plant response rating (scale of 0 to 100), Barley, Winter ([2]; Preemergence, 31 g ai/ha): 0
- Plant response rating, Barley, Winter [2, 17]: 0
- Plant response rating, Barley, Winter [2, 18]: 0
- Plant response rating, Barley, Winter [2, 19]: 0
- Plant response rating, Barley, Winter [2, 20]: 0
- Bluegrass plant response rating [3, 14]: 5
- Plant response rating, Bluegrass [3, 15]: 20
- Plant response rating, Bluegrass [3, 16]: 30
- Plant response rating (scale of 0 to 100), Bluegrass ([3]; Preemergence, 31 g ai/ha): 0
- Plant response rating, Bluegrass [3, 17]: 0
- Plant response rating, Bluegrass [3, 18]: 20
- Plant response rating, Bluegrass [3, 19]: 50
- Plant response rating, Bluegrass [3, 20]: 15
- Buckwheat, Wild plant response rating [4, 14]: 100
- Plant response rating, Buckwheat, Wild [4, 15]: 100
- Plant response rating, Buckwheat, Wild [4, 16]: 100
- Plant response rating (scale of 0 to 100), Buckwheat, Wild ([4]; Preemergence, 31 g ai/ha): 0
- Plant response rating, Buckwheat, Wild [4, 17]: 0
- Plant response rating, Buckwheat, Wild [4, 18]: 0
- Plant response rating, Buckwheat, Wild [4, 19]: 0
- Plant response rating, Buckwheat, Wild [4, 20]: 100
- Chamomile plant response rating [5, 14]: 95
- Plant response rating, Chamomile [5, 15]: 100
- Plant response rating, Chamomile [5, 16]: 100
- Plant response rating (scale of 0 to 100), Chamomile ([5]; Preemergence, 31 g ai/ha): 95
- Plant response rating, Chamomile [5, 17]: 95
- Plant response rating, Chamomile [5, 18]: 100
- Plant response rating, Chamomile [5, 19]: 100
- Plant response rating, Chamomile [5, 20]: 100
- Field Poppy plant response rating [6, 14]: 80
- Plant response rating, Field Poppy [6, 15]: 100
- Plant response rating, Field Poppy [6, 16]: 100
- Plant response rating (scale of 0 to 100), Field Poppy ([6]; Preemergence, 31 g ai/ha): 100
- Plant response rating, Field Poppy [6, 17]: 100
- Plant response rating, Field Poppy [6, 18]: 100
- Plant response rating, Field Poppy [6, 19]: 100
- Plant response rating, Field Poppy [6, 20]: 100
- Galium plant response rating [7, 14]: 90
- Plant response rating, Galium [7, 15]: 100
- Plant response rating, Galium [7, 16]: 100
- Plant response rating (scale of 0 to 100), Galium ([7]; Preemergence, 31 g ai/ha): 0
- Plant response rating, Galium [7, 17]: 10
- Plant response rating, Galium [7, 18]: 35
- Plant response rating, Galium [7, 19]: 70
- Plant response rating, Galium [7, 20]: 100
- Mustard, Wild plant response rating [8, 14]: 25
- Plant response rating, Mustard, Wild [8, 15]: 40
- Plant response rating, Mustard, Wild [8, 16]: 65
- Plant response rating (scale of 0 to 100), Mustard, Wild ([8]; Preemergence, 31 g ai/ha): 0
- Plant response rating, Mustard, Wild [8, 17]: 0
- Plant response rating, Mustard, Wild [8, 18]: 0
- Plant response rating, Mustard, Wild [8, 19]: 0
- Plant response rating, Mustard, Wild [8, 20]: 35
- Oat, Wild plant response rating [9, 14]: 95
- Plant response rating, Oat, Wild [9, 15]: 100
- Plant response rating, Oat, Wild [9, 16]: 100
- Plant response rating (scale of 0 to 100), Oat, Wild ([9]; Preemergence, 31 g ai/ha): 70
- Plant response rating, Oat, Wild [9, 17]: 75
- Plant response rating, Oat, Wild [9, 18]: 80
- Plant response rating, Oat, Wild [9, 19]: 90
- Plant response rating, Oat, Wild [9, 20]: 98
- Oilseed Rape plant response rating [10, 14]: 70
- Plant response rating, Oilseed Rape [10, 15]: 85
- Plant response rating, Oilseed Rape [10, 16]: 90
- Plant response rating (scale of 0 to 100), Oilseed Rape ([10]; Preemergence, 31 g ai/ha): 10
- Plant response rating, Oilseed Rape [10, 17]: 20
- Plant response rating, Oilseed Rape [10, 18]: 25
- Plant response rating, Oilseed Rape [10, 19]: 25
- Plant response rating, Oilseed Rape [10, 20]: 80
- Pigweed plant response rating [11, 14]: 75
- Plant response rating, Pigweed [11, 15]: 85
- Plant response rating, Pigweed [11, 16]: 100
- Plant response rating (scale of 0 to 100), Pigweed ([11]; Preemergence, 31 g ai/ha): 35
- Plant response rating, Pigweed [11, 17]: 95
- Plant response rating, Pigweed [11, 18]: 100
- Plant response rating, Pigweed [11, 19]: 100
- Plant response rating, Pigweed [11, 20]: 80
- Radish, Wild plant response rating [12, 14]: 55
- Plant response rating, Radish, Wild [12, 15]: 70
- Plant response rating, Radish, Wild [12, 16]: 95
- Plant response rating (scale of 0 to 100), Radish, Wild ([12]; Preemergence, 31 g ai/ha): 25
- Plant response rating, Radish, Wild [12, 17]: 60
- Plant response rating, Radish, Wild [12, 18]: 75
- Plant response rating, Radish, Wild [12, 19]: 95
- Plant response rating, Radish, Wild [12, 20]: 65
- Speedwell plant response rating [13, 14]: 70
- Plant response rating, Speedwell [13, 15]: 75
- Plant response rating, Speedwell [13, 16]: 100
- Plant response rating (scale of 0 to 100), Speedwell ([13]; Preemergence, 31 g ai/ha): 80
- Plant response rating, Speedwell [13, 17]: 75
- Plant response rating, Speedwell [13, 18]: 100
- Plant response rating, Speedwell [13, 19]: 100
- Plant response rating, Speedwell [13, 20]: 75
